ChEMBL document CHEMBL4725225, “Exploratory studies on CA-15L, an anti-HIV active HIV-1 capsid fragment” (Bioorg Med Chem, 2020)

What was measured:
[1] = Cytotoxicity against Human immunodeficiency virus 1 NL4-3 infected in human MT4 cells assessed as reduction in cell viability measured after 5 days by MTT assay; assay type: cell-based; conditions: MT4 cells infected with HIV-1 NL4-3, time 5 day
[2] = Cytotoxicity against Human immunodeficiency virus 1 NLAD8 infected in human PM1 cells expressing CCR5 assessed as cell viability measured after 5 days by MTT assay; assay type: cell-based; conditions: PM1 cells expressing CCR5 infected with HIV-1 NLAD8, time 5 day
[3] = tested on: Human immunodeficiency virus 1; assay: Antiviral activity against Human immunodeficiency virus 1 NLAD-8 infected in human PM1 cells expressing CCR5 assessed as reduction in virus-induced cytopathogenicity measured after 5 days by MTT assay; assay type: functional, organism-based; conditions: Human immunodeficiency virus 1, NLAD-8, PM1, 120 h
[4] = tested on: Human immunodeficiency virus 1; assay: Antiviral activity against Human immunodeficiency virus 1 NL4-3 infected in human MT4 cells assessed as reduction in virus-induced cytopathogenicity measured after 5 days by MTT assay; assay type: functional, organism-based; conditions: Human immunodeficiency virus 1, NL4-3, MT4, 120 h

| SMILES | CC50 at 120 h [1] | CC50 at 120 h [2] | EC50 [3] | EC50 [4] |
| --- | --- | --- | --- | --- |
| CC[C@H](C)[C@H](NC(C)=O)C(=O)N[C@H](C(=O)N[C@@H](CCCNC(=N)N)C(=O)N[C@@H](CCSC)C(=O)N[C@@H](Cc1ccc(O)cc1)C(=O)N[C@@H](CO)C(=O)N1CCC[C@H]1C(=O)N[C@H](C(=O)N[C@@H](CO)C(=O)N[C@H](C(=O)N[C@@H](CC(C)C)C(=O)N[C@@H](CC(=O)O)C(=O)N[C@H](C(=O)N[C@@H](CCCNC(=N)N)C(=O)N[C@@H](CCC(N)=O)C(=O)NCC(=O)N[C@@H](CSCC(=O)N[C@@H](CCCNC(=N)N)C(=O)N[C@@H](CCCNC(=N)N)C(=O)N[C@@H](CCCNC(=N)N)C(=O)N[C@@H](CCCNC(=N)N)C(=O)N[C@@H](CCCNC(=N)N)C(=O)N[C@@H](CCCNC(=N)N)C(=O)N[C@@H](CCCNC(=N)N)C(=O)N[C@@H](CCCNC(=N)N)C(N)=O)C(N)=O)[C@@H](C)CC)[C@@H](C)CC)[C@@H](C)O)C(C)C | 9.3 µM | 18 µM | 1.2 µM | 4.6 µM |
| CC[C@H](C)[C@H](NC(C)=O)C(=O)N[C@H](C(=O)N[C@@H](CCCNC(=N)N)C(=O)N[C@@H](CCSC)C(=O)N[C@@H](Cc1ccc(O)cc1)C(=O)N[C@@H](CO)C(=O)N1CCC[C@H]1C(=O)N[C@H](C(=O)N[C@@H](COP(=O)(O)O)C(=O)N[C@H](C(=O)N[C@@H](CC(C)C)C(=O)N[C@@H](CC(=O)O)C(=O)N[C@H](C(=O)N[C@@H](CCCNC(=N)N)C(=O)N[C@@H](CCC(N)=O)C(=O)NCC(=O)N[C@@H](CSCC(=O)N[C@@H](CCCNC(=N)N)C(=O)N[C@@H](CCCNC(=N)N)C(=O)N[C@@H](CCCNC(=N)N)C(=O)N[C@@H](CCCNC(=N)N)C(=O)N[C@@H](CCCNC(=N)N)C(=O)N[C@@H](CCCNC(=N)N)C(=O)N[C@@H](CCCNC(=N)N)C(=O)N[C@@H](CCCNC(=N)N)C(N)=O)C(N)=O)[C@@H](C)CC)[C@@H](C)CC)[C@@H](C)O)C(C)C | 44 µM | > 50 µM | > 50 µM | > 44 µM |
| CC[C@H](C)[C@H](NC(C)=O)C(=O)N[C@H](C(=O)N[C@@H](CCCNC(=N)N)C(=O)N[C@@H](CCSC)C(=O)N[C@@H](Cc1ccc(O)cc1)C(=O)N[C@@H](CO)C(=O)N1CCC[C@H]1C(=O)N[C@H](C(=O)N[C@@H](CCC(=O)O)C(=O)N[C@H](C(=O)N[C@@H](CC(C)C)C(=O)N[C@@H](CC(=O)O)C(=O)N[C@H](C(=O)N[C@@H](CCCNC(=N)N)C(=O)N[C@@H](CCC(N)=O)C(=O)NCC(=O)N[C@@H](CSCC(=O)N[C@@H](CCCNC(=N)N)C(=O)N[C@@H](CCCNC(=N)N)C(=O)N[C@@H](CCCNC(=N)N)C(=O)N[C@@H](CCCNC(=N)N)C(=O)N[C@@H](CCCNC(=N)N)C(=O)N[C@@H](CCCNC(=N)N)C(=O)N[C@@H](CCCNC(=N)N)C(=O)N[C@@H](CCCNC(=N)N)C(N)=O)C(N)=O)[C@@H](C)CC)[C@@H](C)CC)[C@@H](C)O)C(C)C | 31 µM | > 50 µM | > 50 µM | > 31 µM |
| CC[C@H](C)[C@H](NC(C)=O)C(=O)N[C@H](C(=O)N[C@@H](CCCNC(=N)N)C(=O)N[C@@H](CCSC)C(=O)N[C@@H](Cc1ccc(O)cc1)C(=O)N[C@@H](CO)C(=O)N1CCC[C@H]1C(=O)N[C@H](C(=O)N[C@@H](CC(F)(F)P(=O)(O)O)C(=O)N[C@H](C(=O)N[C@@H](CC(C)C)C(=O)N[C@@H](CC(=O)O)C(=O)N[C@H](C(=O)N[C@@H](CCCNC(=N)N)C(=O)N[C@@H](CCC(N)=O)C(=O)NCC(=O)N[C@@H](CSCC(=O)N[C@@H](CCCNC(=N)N)C(=O)N[C@@H](CCCNC(=N)N)C(=O)N[C@@H](CCCNC(=N)N)C(=O)N[C@@H](CCCNC(=N)N)C(=O)N[C@@H](CCCNC(=N)N)C(=O)N[C@@H](CCCNC(=N)N)C(=O)N[C@@H](CCCNC(=N)N)C(=O)N[C@@H](CCCNC(=N)N)C(N)=O)C(N)=O)[C@@H](C)CC)[C@@H](C)CC)[C@@H](C)O)C(C)C | > 50 µM | > 50 µM | > 50 µM | > 50 µM |
| c1cc(CN2CCCNCCNCCCNCC2)ccc1CN1CCCNCCNCCCNCC1 [PLERIXAFOR] | > 50 µM | > 50 µM | > 50 µM | 0.035 µM |
| COC[C@@H](c1ccc(C(F)(F)F)cc1)N1CCN(C2(C)CCN(C(=O)c3c(C)ncnc3C)CC2)C[C@@H]1C [VICRIVIROC] | > 5 µM | > 5 µM | 0.014 µM | > 5 µM |
| Cc1cn([C@H]2C[C@H](N=[N+]=[N-])[C@@H](CO)O2)c(=O)[nH]c1=O [ZIDOVUDINE] | > 50 µM | > 100 µM | 0.3 µM | 0.043 µM |
